# Assays:
# HIV-integrase = target: T1, HIV-integrase (Human immunodeficiency virus type 1 group M subtype B, UniProt P04585); test: HIV integrase SPA integration assay (biotin-labeled substrate DNA on streptavidin SPA beads, P33-labeled target DNA); assay type: biochemical; conditions: percent inhibition of HIV-integrase in the presence of 20 μM of compound
# T1 construct: 0.26 ng of recombinant integrase was incubated with the beads for 90 min at 37 C
# Method: For each reaction, 5 pmole of biotin labeled substrate DNA was bound to 100 ug of Streptavidin coated PVT SPA beads (Amersham Pharmacia Biotech). 0.26 ng of recombinant integrase was incubated with the beads for 90 min at 37 C. Unbound enzyme was removed by washing the complex followed by addition of inhibitors and 0.1 fmol of P33 labeled target DNA. Reaction was stopped by adding EDTA to a final concentration of 10 mM. Samples were counted in TopCountNXT (Packard) and the CPM was used as a measure of integration. Reaction condition was as described in A. Engelman and R. Craigie, J. Virol. 69, 5908–5911 (1995). The sequences of substrate and target DNA were described in Nucleic Acid Research 22, 1121–1122 (1994).
SMILES,melting point,inhibition at 20 µM (HIV-integrase)
"CON(Cc1ccccc1C)C(=O)C1=C(O)C(=O)N(C)C1 [Compound 56, 4-Hydroxy-1-methyl-5-oxo-2,5-dihydro-1H-pyrrole-3-carboxylic acid methoxy-(2-methyl-benzyl)-amide]",153 to 154 °C,88%
"CON(Cc1ccc(F)c(Br)c1)C(=O)C1=C(O)C(=O)N(C)C1 [Compound 57, 4-Hydroxy-1-methyl-5-oxo-2,5-dihydro-1H-pyrrole-3-carboxylic acid (3-bromo-4-fluoro-benzyl)-methoxy-amide]",154 to 157 °C (dec.),99.9%
"CC(C)CON(Cc1ccc(F)cc1)C(=O)C1=C(O)C(=O)N(C)C1 [Compound 58, 4-Hydroxy-1-methyl-5-oxo-2,5-dihydro-1H-pyrrole-3-carboxylic acid (4-fluoro-benzyl)-isobutoxy-amide]",96 to 97 °C,99.5%
"CON(Cc1ccc(C)cc1)C(=O)C1=C(O)C(=O)N(C)C1 [Compound 59, 4-Hydroxy-1-methyl-5-oxo-2,5-dihydro-1H-pyrrole-3-carboxylic acid methoxy-(4-methyl-benzyl)-amide]",150 to 152 °C,99.9%
"CON(Cc1ccc(C#N)cc1)C(=O)C1=C(O)C(=O)N(C)C1 [Compound 62, 4-Hydroxy-1-methyl-5-oxo-2,5-dihydro-1H-pyrrole-3-carboxylic acid (4-cyano-benzyl)-methoxy-amide]",161 °C (dec.),97.7%
"CON(Cc1ccc(NC(C)=O)cc1)C(=O)C1=C(O)C(=O)N(C)C1 [Compound 63, 4-Hydroxy-1-methyl-5-oxo-2,5-dihydro-1H-pyrrole-3-carboxylic acid (4-acetylamino-benzyl)-methoxy-amide]",110 °C,12%
"CON(Cc1ccc(F)c(C)c1)C(=O)C1=C(O)C(=O)N(C)C1 [Compound 64, 4-Hydroxy-1-methyl-5-oxo-2,5-dihydro-1H-pyrrole-3-carboxylic acid (4-fluoro-3-methyl-benzyl)-methoxy-amide]",160 to 164 °C,99.7%
"CON(Cc1ccc(C)c(F)c1)C(=O)C1=C(O)C(=O)N(C)C1 [Compound 65, 4-Hydroxy-1-methyl-5-oxo-2,5-dihydro-1H-pyrrole-3-carboxylic acid (3-fluoro-4-methyl-benzyl)-methoxy-amide]",145 °C,99.9%
"CON(Cc1ccc(C(=O)O)cc1)C(=O)C1=C(O)C(=O)N(C)C1 [Compound 68, 4-{[(4-Hydroxy-1-methyl-5-oxo-2,5-dihydro-1H-pyrrole-3-carbonyl)-methoxy-amino]-methyl}-benzoic acid]",196 to 197 °C,12%
"CON(C(=O)C1=C(O)C(=O)N(C)C1)C(C)c1ccc(F)cc1 (centres unmarked) [Compound 69, 4-Hydroxy-1-methyl-5-oxo-2,5-dihydro-1H-pyrrole-3-carboxylic acid [1-(4-fluoro-phenyl)-ethyl]-methoxy-amide]",136 to 138 °C,97%
CN1CC(C(=O)N(Cc2ccc(F)cc2)OCC(=O)OC(C)(C)C)=C(O)C1=O [Compound 70],128 to 130 °C,99.8%
"CN1CC(C(=O)N(Cc2ccc(F)cc2)OCC(=O)O)=C(O)C1=O [Compound 71, [(4-Fluoro-benzyl)-(4-hydroxy-1-methyl-5-oxo-2,5-dihydro-1H-pyrrole-3-carbonyl)-aminooxy]-acetic acid]",147 to 150 °C,99.9%
"CN(C)C(=O)CON(Cc1ccc(F)cc1)C(=O)C1=C(O)C(=O)N(C)C1 [Compound 72, 4-Hydroxy-1-methyl-5-oxo-2,5-dihydro-1H-pyrrole-3-carboxylic acid dimethylcarbamoylmethoxy-(4-fluoro-benzyl)-amide]",147 to 149 °C,98.8%
"CON(Cc1ccc(F)cc1Cl)C(=O)C1=C(O)C(=O)N(C)C1 [Compound 74, 4-Hydroxy-1-methyl-5-oxo-2,5-dihydro-1H-pyrrole-3-carboxylic acid (2-chloro-4-fluoro-benzyl)-methoxy-amide]",152 to 155 °C,97.8%
"CN1CC(C(=O)N(C)C(Cc2ccc(Cl)cc2)Cc2ccc(Cl)cc2)=C(O)C1=O [Compound 75, 4-Hydroxy-1-methyl-5-oxo-2,5-dihydro-1H-pyrrole-3-carboxylic acid [1-(4-chloro-benzyl)-2-(4-chloro-phenyl)-ethyl]-methyl-amide]",152 to 154 °C,96.5%
"CN1CC(C(=O)N(Cc2ccc(F)cc2)c2ccc(Cl)c(Cl)c2)=C(O)C1=O [Compound 78, 4-Hydroxy-1-methyl-5-oxo-2,5-dihydro-1H-pyrrole-3-carboxylic acid (3,4-dichloro-phenyl)-(4-fluoro-benzyl)-amide]",195 °C (dec.),99.9%
